Test results: patent US10844080B2, “Compositions and methods for inhibiting arginase activity” (CALITHERA BIOSCIENCES, INC., priority 2015, dated 2020)

System: Lewis Lung Carcinoma cells
Test: Lewis Lung Carcinoma efficacy study
Type: in vivo
Conditions: single agent, dosed orally twice daily at 50, 100 or 200 mg/kg; female C57.Bl/6 mice implanted subcutaneously with Lewis Lung Carcinoma cells; relative to control
Experimental: Female C57.Bl/6 mice (n=40) were implanted subcutaneously with 1×10^6 Lewis Lung Carcinoma cells suspended in PBS. The day following implantation, mice were randomized into 4 groups of n=10 mice to receive the following treatments dosed orally twice daily until study end: 1) Vehicle (water); 2) Compound 10 at 50 mg/kg formulated in water; 3) Compound 10 at 100 mg/kg formulated in water; or 4) Compound 10 at 200 mg/kg formulated in water. Tumors were measured three times per week with digital calipers and tumor volumes calculated with the following formula: tumor volume (mm^3)=(a×b^2/2) where ‘b’ is the smallest diameter and ‘a’ is the largest perpendicular diameter. ***P-value<0.001, ****P-value<0.0001 (Two-sided T-test).

## C[C@H](N)C(=O)N1C[C@H](CCCB(O)O)[C@](N)(C(=O)O)C1 [Compound 10, (3R,4S)-3-amino-1-((S)-2-aminopropanoyl)-4-(3-boronopropyl)pyrrolidine-3-carboxylic acid]
  tumor volume over time (tumor growth): slows tumor growth relative to control
